One assay has as its system PC3 cells. In words: Cell Proliferation Assay, PC3. The assay is classed as cell-based. The conditions noted are these: Homo sapiens, PC-3; PC3, BME media lacking nonessential amino acids, 72 hours, ATPlite; read-out: Percent viability (EC50), Average. Here is the method: Cells were seeded at 5000 cells per well (in 96-well plate) in BME media lacking nonessential amino acids+5% dialyzed serum. After 18 hours, DMSO or compound in 0.1% final concentration DMSO was added.
Percent viability (EC50) of A549 and PC3 cells was tested against certain exemplary compounds according to the above general procedures.
(In ATP-based viability assays light output follows the ATP content of the culture.)

The next assay concerns the target PKM2 (Homo sapiens, UniProt P14618). Put plainly: Cell-Based Pyruvate Kinase Activity Assay, NCI-H1299. More on the design: host or cells: A549 or NCI-H1299 lung cancer cells. Conditions: NCI-H1299, 30 minutes with compound, n = 4; read-out: Cellular PKM2 activation EC50. Here is the method: Cell-Based Pyruvate Kinase Activity Assay
A549 or NCI-H1299 lung cancer cells were plated at 20,000 cells per well (96-well plate) in MEM media plus 10% FBS, with no additional glutamine or pyruvate. Following overnight incubation, cells were washed with PBS followed by 4 hour incubation in MEM media. Compounds were added to the cells in 1% final concentration DMSO. After 30 minutes, cells were lysed, and pyruvate kinase activity in lysates was determined by Pyruvate Kinase Activity Assay (BioVision, Milpitas, Calif.). Maximum velocity values were calculated from the kinetic data, and AC50 values were determined using Prism GraphPad Software (La Jolla, Calif.). Compound washout experiments were as described above, except after a 30 minute incubation with Example 244 (469 nM), the cells were washed with PBS followed by the addition of MEM media for the indicated time period, lysed and pyruvate kinase activity determined. Results are tabulated in Table 3 and presented graphically in FIGS. 6A and 6B.

PKM2, sequence (P14618 2-531 limits assumed): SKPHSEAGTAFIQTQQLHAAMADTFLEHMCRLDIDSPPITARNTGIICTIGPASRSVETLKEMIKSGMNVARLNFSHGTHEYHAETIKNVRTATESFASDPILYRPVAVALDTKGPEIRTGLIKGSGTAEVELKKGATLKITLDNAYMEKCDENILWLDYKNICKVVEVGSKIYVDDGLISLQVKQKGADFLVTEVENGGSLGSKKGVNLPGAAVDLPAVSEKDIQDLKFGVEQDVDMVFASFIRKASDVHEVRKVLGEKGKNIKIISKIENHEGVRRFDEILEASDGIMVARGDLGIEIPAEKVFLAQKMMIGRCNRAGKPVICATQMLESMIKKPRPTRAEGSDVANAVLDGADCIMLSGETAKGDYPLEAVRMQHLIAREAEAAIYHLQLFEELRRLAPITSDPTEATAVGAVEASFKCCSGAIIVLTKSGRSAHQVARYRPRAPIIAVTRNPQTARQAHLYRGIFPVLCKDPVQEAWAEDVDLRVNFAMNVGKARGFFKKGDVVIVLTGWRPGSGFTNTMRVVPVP

On to `O=C(c1cc(C(F)(F)F)n[nH]1)N(Cc1ccc(O)cc1F)CC1CCC1` [Example 1, N-(cyclobutylmethyl)-N-(2-fluoro-4-hydroxybenzyl)-3-(trifluoromethyl)-1H-pyrazole-5-carboxamide], for which the 50% effective concentration (EC50) (commonly the concentration needed to bring the measured effect to its halfway point) turned out to be 156 nM in the assay on PC3 cells and 220 ± 50 nM on PKM2.

For the origin of these results see patent US10766865B2, “PKM2 modulators and methods for their use” (TOLERO PHARMACEUTICALS, INC., priority 2012, dated 2020).
